Data as given in patent US9873680B2 (Gilead Sciences, Inc., priority 2014, dated 2018).
Read-outs that look alike come from different tables or passages of the source.

Key:
[1] = system: HIV-IIIb; test: Test A: Antiviral Assay in MT4 Cells; format: cell-based, HIV-1; details: for inhibition at 0.2 µM: 0.2 μM drug concentration
Procedure, shortened: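 MT-4 cells were preinfected with HIV-IIIb […]. Cell viability, as protection from viral cytopathic effect, was read by CellTiter-Glo chemiluminescence.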

[2] = Test B: Cytotoxicity Assay; format: cell-based; details: human, uninfected MT-4 cells, CellTiter-Glo
Protocol: Test B: Cytotoxicity Assay Compound cytotoxicity and the corresponding CC50 values was determined using the same protocol as described in the antiviral assay (Test A) except that uninfected cells were used.

[3] = Human immunodeficiency virus 1, MT4, 120 h, MT-4 cells infected with HIV-IIIb, 5 days, values normalized to 100%, average over time, read-out: % inhibition at 0.2 μM (percent inhibition of virus-induced cell killing)

Row | Compound | inhibition at 0.2 µM ([1]; Human immunodeficiency virus 1, IIIB, MT4, comparison with previously published compounds, read-out: Response at 0.2 μM (percent inhibition of virus-induced cell killing)) | inhibition at 2 µM ([1]; Human immunodeficiency virus 1, IIIB, MT4, 2 μM drug concentration, comparison with previously published compounds, read-out: Response at 2 μM (percent inhibition of virus-induced cell killing)) | inhibition at 0.2 µM [1, 3] | CC50 at 5 days [2]
1 | NC(=O)c1cc(-c2ccc(C#CC3(O)CCCCC3)nc2[C@H](Cc2cc(F)cc(F)c2)NC(=O)Cn2nc(C(F)(F)F)c3c2C(F)(F)[C@@H]2C[C@H]32)ccc1F [Compound 16, 5-(2-((S)-1-(2-((3bS,4aR)-5,5-difluoro-3-(trifluoromethyl)-3b,4,4a,5-tetrahydro-1H-cyclopropa[3,4]cyclopenta[1,2-c]pyrazol-1-yl)acetamido)-2-(3,5-difluorophenyl)ethyl)-6-((1-hydroxycyclohexyl)ethynyl)pyridin-3-yl)-2-fluorobenzamide] | 76% | 77% | 76% | 3 µM
2 | O=C(Cn1nc(C(F)F)c2c1C(F)(F)CCC2(F)F)N[C@@H](Cc1cc(F)cc(F)c1)c1nc(C#Cc2cnc3[nH]ccc3c2)ccc1-c1cnc2[nH]ccc2c1 [Compound 4C, (S)—N-(1-(6-((1H-pyrrolo[2,3-b]pyridin-5-yl)ethynyl)-3-(1H-pyrrolo[2,3-b]pyridin-5-yl)pyridin-2-yl)-2-(3,5-difluorophenyl)ethyl)-2-(3-(difluoromethyl)-4,4,7,7-tetrafluoro-4,5,6,7-tetrahydro-1H-indazol-1-yl)acetamide] | – | – | 0% | 1.27 µM
3 | Cn1nc(NS(C)(=O)=O)c2c(Cl)ccc(-c3ccc(C#CC4COCCN4)nc3[C@H](Cc3cc(F)cc(F)c3)NC(=O)Cn3nc(C(F)(F)F)c4c3C(F)(F)[C@@H]3C[C@H]43)c21 (stereo partly drawn) [Compound 49, N-((1S)-1-(3-(4-chloro-1-methyl-3-(methylsulfonamido)-1H-indazol-7-yl)-6-(morpholin-3-ylethynyl)pyridin-2-yl)-2-(3,5-difluorophenyl)ethyl)-2-((3bS,4aR)-5,5-difluoro-3-(trifluoromethyl)-3b,4,4a,5-tetrahydro-1 I-cyclopropa[3,4]cyclopenta[1,2-c]pyrazol-1-yl)acetamide] | – | – | 92% | 20.6 µM
4 | Cn1nc(NS(C)(=O)=O)c2c(Cl)ccc(-c3ccc(C#C[C@]4(C)CNCCO4)nc3[C@H](Cc3cc(F)cc(F)c3)NC(=O)Cn3nc(C#N)c4c3C(F)(F)[C@@H]3C[C@H]43)c21 [Compound 88L, N—((S)-1-(3-(4-chloro-1-methyl-3-(methylsulfonamido)-1H-indazol-7-yl)-6-(((R)-2-methylmorpholin-2-yl)ethynyl)pyridin-2-yl)-2-(3,5-difluorophenyl)ethyl)-2-((3bS,4aR)-3-cyano-5,5-difluoro-3b,4,4a,5-tetrahydro-1H-cyclopropa[3,4]cyclopenta[1,2-c]pyrazol-1-yl)acetamide] | – | – | 97% | 5.79 µM
5 | Cn1nc(NS(C)(=O)=O)c2c(Cl)ccc(-c3ccc(C#CC4(C)CNCCO4)nc3[C@H](Cc3cc(F)cc(F)c3)NC(=O)Cn3nc(C(F)(F)F)c4c3C(F)(F)[C@@H]3C[C@H]43)c21 (stereo partly drawn) [Compound 76, N-((1S)-1-(3-(4-chloro-1-methyl-3-(methylsulfonamido)-1H-indazol-7-yl)-6-((2-methylmorpholin-2-yl)ethynyl)pyridin-2-yl)-2-(3,5-difluorophenyl)ethyl)-2-((3bS,4aR)-5,5-difluoro-3-(trifluoromethyl)-3b,4,4a,5-tetrahydro-1H-cyclopropa[3,4]cyclopenta[1,2-c]pyrazol-1-yl)acetamide] | – | – | 93% | 6.67 µM
6 | Cn1nc(NS(C)(=O)=O)c2c(Cl)ccc(-c3ccc(-c4cnn(C5CCOCC5)c4)nc3[C@H](Cc3cc(F)cc(F)c3)NC(=O)Cn3nc(C(F)(F)F)c4c3C(F)(F)[C@@H]3C[C@H]43)c21 [Compound 71, N—((S)-1-(3-(4-chloro-1-methyl-3-(methylsulfonamido)-1H-indazol-7-yl)-6-(1-(tetrahydro-2H-pyran-4-yl)-1H-pyrazol-4-yl)pyridin-2-yl)-2-(3,5-difluorophenyl)ethyl)-2-((3bS,4aR)-5,5-difluoro-3-(trifluoromethyl)-3b,4,4a,5-tetrahydro-1H-cyclopropa[3,4]cyclopenta[1,2-c]pyrazol-1-yl)acetamide] | – | – | 97% | > 53.2 µM
